The term IC50 denotes the point on the concentration scale where inhibition reaches its midpoint.

This experiment concerns the target T1, CCR2 (Homo sapiens, UniProt P41597).
T1 construct: Peripheral Blood Mononuclear Cells (PBMCs) prepared from normal human whole blood via density gradient centrifugation; endogenous in cells; host or cells: human PBMCs from normal whole blood
T1 sequence (P41597 1-360 isoform P41597-2): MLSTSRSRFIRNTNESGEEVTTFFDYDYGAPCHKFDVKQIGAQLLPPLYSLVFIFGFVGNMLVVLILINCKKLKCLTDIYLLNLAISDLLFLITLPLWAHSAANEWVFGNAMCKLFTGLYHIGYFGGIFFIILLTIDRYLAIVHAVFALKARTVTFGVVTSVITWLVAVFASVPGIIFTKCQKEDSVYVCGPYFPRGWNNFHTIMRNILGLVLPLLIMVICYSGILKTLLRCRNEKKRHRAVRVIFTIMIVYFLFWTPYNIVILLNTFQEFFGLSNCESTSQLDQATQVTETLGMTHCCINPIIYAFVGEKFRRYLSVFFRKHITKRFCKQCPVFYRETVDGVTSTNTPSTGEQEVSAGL
Nature of the experiment: CCR2 binding assay: 125I-labeled MCP-1 binding to human PBMCs. The conditions noted are these: inhibition of specific binding of 0.1 to 0.2 nM 125I-labeled MCP-1 to human PBMCs, 30 min at room temperature. An excerpt:
The CCR2 antagonist activity of compounds of the invention can be reported as the inhibitor concentration required for 50% inhibition (IC50 values) of specific binding in receptor binding assays using ^125I-labeled MCP-1, as ligand, and Peripheral Blood Mononuclear Cells (PBMCs) prepared from normal human whole blood via density gradient centrifugation. Specific binding is preferably defined as the total binding (e.g., total cpm on filters) minus the non-specific binding. Non-specific binding is defined as the amount of cpm still detected in the presence of excess unlabeled competitor (e.g., MCP-1).
Human PBMCs are used to test compounds of the invention in a binding assay. For example, 200,000 to 500,000 cells are incubated with 0.1 to 0.2 nM ^125I-labeled MCP-1, with or without unlabeled competitor (10 nM MCP-1) or various concentrations of compounds to be tested. ^125I-labeled MCP-1, are prepared by suitable methods or purchased from commercial vendors (Perkin Elmer, Boston Mass.). The binding reactions are performed in 50 to 250 μL of a binding buffer consisting of […] pH 7.2, and 0.1% BSA (bovine serum albumin), for 30 min at room temperature. The binding reactions are terminated by harvesting the membranes by rapid filtration through glass fiber filters (Perkin Elmer) which is presoaked in 0.3% polyethyleneimine or Phosphate Buffered Saline (PBS). The filters were rinsed with approximately 600 μL of binding buffer containing 0.5 M NaCl or PBS, then dried, and the amount of bound radioactivity is determined by counting on a Gamma Counter (Perkin Elmer).
As for `COc1ccc(CN[C@@H]2CC[C@@](C(=O)N3CCN(c4cc(C(F)(F)F)ccn4)CC3)(C(C)C)C2)cc1OC` [Example 25, (1R,3S)-N-(34-dimethoxybenzyl)-3-isopropyl-3-({4-[4-(trifluoromethyl)pyridin-2-yl]piperazin-1-yl}carbonyl)cyclopentanamine], the 50% inhibitory concentration (IC50) was 500 nM.
As for `CC(C)[C@]1(C(=O)N2CCN(c3cc(C(F)(F)F)ccn3)CC2)CC[C@@H](NC2CCCN(c3ncccn3)C2)C1` (mixture of isomers) [Example 11, N-[(1R,3S)-3-isopropyl-3-({4-[4-(trifluoromethyl)pyridin-2-yl]piperazin-1-yl}carbonyl)cyclopentyl]-1-pyrimidin-2-ylpiperidin-3-amine], the half-maximal inhibitory concentration (IC50) came out at 420 nM.
Regarding `CC(C)[C@]1(C(=O)N2CCN(c3cc(C(F)(F)F)ccn3)CC2)CC[C@@H](NCc2ccc(Cl)s2)C1` [Example 5, (1R,3S)-N-[(5-chloro-2-thienyl)methyl]-3-isopropyl-3-({4-[4-(trifluoromethyl)pyridin-2-yl]piperazin-1-yl}carbonyl)cyclopentanamine], the 50% inhibitory concentration (IC50) is 616 nM.
Under `CC(C)[C@]1(C(=O)N2CCN(c3cc(C(F)(F)F)ccn3)CC2)CC[C@@H](NC2CCc3ccccc3C2)C1` (mixture of isomers) [Example 19, N-[(1R,3S)-3-isopropyl-3-({4-[4-(trifluoromethyl)pyridin-2-yl]piperazin-1-yl}carbonyl)cyclopentyl]-1234-tetrahydronaphthalen-2-amine] stands 138 nM.
